Data taken from patent US12329757B2, “Methods for increasing sepiapterin plasma exposure” (PTC Therapeutics MP, Inc., priority 2018, dated 2025).
Read-outs that look alike come from different tables or passages of the source.

Experiments:
[1] = Food effect on administration of sepiapterin: plasma concentrations of BH4 and sepiapterin in fasted and fed subjects; format: in vivo; details: sepiapterin 10 mg/kg oral
Procedure: Method: Subjects received 2 oral doses of sepiapterin (10 mg/kg) separated by 1 week in a fasted and fed state. Subjects were fed a standard high-fat (approximately 50 percent of total caloric content of the meal) and high-calorie (approximately 800 to 1000 calories) meal starting 30 minutes prior to receiving their second oral dose of sepiapterin on Day 8.
Sampling for PK analysis occurred predose on Days 1 and 8 (within 30 minutes before dosing) and 0.5 hr, 1 hr, 2 hr, 4 hr, 8 hr, 12 hr, and 24 hr after the doses on Days 1 and 8. The blood concentrations of sepiapterin and BH4 were analyzed by MNG Labs.

[2] = Pharmacokinetic parameters for BH4 after single dose of sepiapterin or BH4 in fasted subjects; format: in vivo
Procedure: Six subjects received sepiapterin in each group and three subjects received BH4 in each group where this treatment was administered. Table 5. Summary of pharmacokinetic parameters for BH4 after administration of single dose of sepiapterin or BH4 in fasted subjects.
Values shown are means of plasma concentrations of BH4 following administration at the doses shown.

[3] = fasted vs fed prior to administration

Sepiapterin Concentration in Plasma, Mean ([1]; fasted, 0 h (predose)): 0 nM
Sepiapterin Concentration in Plasma, Median ([1]; fasted, 0 h (predose)): 0 nM
concentration at 24 h ([1]; fasted, 0 h (predose), read-out: Sepiapterin Concentration in Plasma, Maximum): 0 nM
concentration at 2 h ([1]; fasted, 0 h (predose), read-out: Sepiapterin Concentration in Plasma, Minimum): 0 nM
Sepiapterin Concentration in Plasma, Mean ([1]; fasted, 8 h): 0 nM
Sepiapterin Concentration in Plasma, Median ([1]; fasted, 8 h): 0 nM
concentration at 2 h ([1]; fasted, 8 h, read-out: Sepiapterin Concentration in Plasma, Minimum): 0 nM
Sepiapterin Concentration in Plasma, Mean ([1]; fasted, 12 h): 0 nM
Sepiapterin Concentration in Plasma, Median ([1]; fasted, 12 h): 0 nM
concentration at 2 h ([1]; fasted, 12 h, read-out: Sepiapterin Concentration in Plasma, Minimum): 0 nM
Sepiapterin Concentration in Plasma, Mean ([1]; fasted, 24 h): 0 nM
Sepiapterin Concentration in Plasma, Median ([1]; fasted, 24 h): 0 nM
concentration at 2 h ([1]; fasted, 24 h, read-out: Sepiapterin Concentration in Plasma, Minimum): 0 nM
Sepiapterin Concentration in Plasma, Mean ([1]; fed, 0 h (predose)): 0 nM
Sepiapterin Concentration in Plasma, Median ([1]; fed, 0 h (predose)): 0 nM
concentration at 24 h ([1]; fed, 0 h (predose), read-out: Sepiapterin Concentration in Plasma, Maximum): 0 nM
Sepiapterin Concentration in Plasma, Median ([1]; fed, 0.5 h): 0 nM
concentration at 2 h ([1]; fed, 0.5 h, read-out: Sepiapterin Concentration in Plasma, Minimum): 0 nM
concentration at 2 h ([1]; fed, 4 h, read-out: Sepiapterin Concentration in Plasma, Minimum): 0 nM
Sepiapterin Concentration in Plasma, Median ([1]; fed, 8 h): 0 nM
concentration at 2 h ([1]; fed, 8 h, read-out: Sepiapterin Concentration in Plasma, Minimum): 0 nM
Sepiapterin Concentration in Plasma, Mean ([1]; fed, 12 h): 0 nM
Sepiapterin Concentration in Plasma, Median ([1]; fed, 12 h): 0 nM
concentration at 24 h ([1]; fed, 12 h, read-out: Sepiapterin Concentration in Plasma, Maximum): 0 nM
concentration at 2 h ([1]; fed, 12 h, read-out: Sepiapterin Concentration in Plasma, Minimum): 0 nM
Sepiapterin Concentration in Plasma, Mean ([1]; fed, 24 h): 0 nM
Sepiapterin Concentration in Plasma, Median ([1]; fed, 24 h): 0 nM
concentration at 24 h ([1]; fed, 24 h, read-out: Sepiapterin Concentration in Plasma, Maximum): 0 nM
concentration at 2 h ([1]; fed, 24 h, read-out: Sepiapterin Concentration in Plasma, Minimum): 0 nM
concentration at 0.5 h ([1]; human, plasma, fasted, 0.5 h, read-out: Sepiapterin Concentration in Plasma, Minimum): 0 nM
concentration at 4 h ([1]; human, plasma, fasted, 4 h, read-out: Sepiapterin Concentration in Plasma, Minimum): 0 nM
concentration at 8 h ([1]; human, plasma, fasted, 8 h, read-out: Sepiapterin Concentration in Plasma, Maximum): 0 nM
concentration at 12 h ([1]; human, plasma, fasted, 12 h, read-out: Sepiapterin Concentration in Plasma, Maximum): 0 nM
concentration at 24 h ([1]; human, plasma, fasted, 24 h, read-out: Sepiapterin Concentration in Plasma, Maximum): 0 nM
concentration at 0 h ([1]; human, plasma, fed, 0 h (predose), read-out: Sepiapterin Concentration in Plasma, Minimum): 0 nM
concentration at 1 h ([1]; human, plasma, fed, 1 h, read-out: Sepiapterin Concentration in Plasma, Minimum): 0 nM
concentration at 2 h ([1]; human, plasma, fed, 2 h, read-out: Sepiapterin Concentration in Plasma, Minimum): 0 nM
Cmax of BH4 in the plasma, fasted compared to fed [1, 3]: much lower
Cmax of sepiapterin in the plasma, fasted compared to fed [1, 3]: much higher
AUC0-24 of BH4, sepiapterin compared to BH4 administration [2]: much higher
AUC0-inf of BH4, sepiapterin compared to BH4 administration [2]: much higher
SMILES: C[C@H](O)C(=O)C1=Nc2c(nc(N)[nH]c2=O)NC1 [sepiapterin, Sepiapterin]
